Data published in ChEMBL document CHEMBL5131544, “Two-Photon Photodynamic Therapy Targeting Cancers with Low Carboxylesterase 2 Activity Guided by Ratiometric Fluorescence” (J Med Chem, 2022).
Calls of active or inactive are those of the source. No cut-off for these calls is given here.

How the values were obtained:
[1] = Dark toxicity against human MCF7 cells assessed as reduction in cell viability after 3 hrs by MTT assay; assay type: cell-based
PANC-1 [2] = assay: Induction of apoptosis in human PANC-1 cells at 20 uM preincubated for 3 hrs followed by compound washout and 415 nm light irradiation for 10 mins and measured after 20 mins post irradiation by Annexin V-FITC staining based assay; assay type: functional, cell-based
PANC-1 [3] = assay: Induction of apoptosis in human PANC-1 cells assessed as membrane decomposition at 20 uM preincubated for 3 hrs followed by compound washout and 415 nm light irradiation for 10 mins and measured after 24 hrs post irradiation by Hoeschst-33342/PI staining based assay; assay type: functional, cell-based
PANC-1 [4] = assay: Induction of apoptosis in human PANC-1 cells assessed as caspase 3 cleavage at 20 uM preincubated for 3 hrs followed by compound washout and 415 nm light irradiation for 10 mins and measured after 20 to 1440 mins post irradiation by Western blot analysis; assay type: functional, cell-based
MCF7 [5] = assay: Induction of ROS production in human MCF7 cells at 20 uM incubated for 3 hrs under 415 nm light irradiation by DCFH-DA staining based fluorescence microscopic analysis; assay type: functional, cell-based
PANC-1 [6] = assay: Induction of apoptosis in human PANC-1 cells at 20 uM preincubated for 3 hrs followed by compound washout and 415 nm light irradiation for 10 mins and measured after 1 hr post irradiation by Annexin V-FITC staining based assay; assay type: functional, cell-based
[7] = Dark toxicity against human PANC-1 cells assessed as reduction in cell viability after 3 hrs by MTT assay; assay type: cell-based
MCF7 [8] = assay: Phototoxicity against human MCF7 cells assessed as reduction in cell viability after 3 hrs followed by compound washout and 415 nm light irradiation measured after overnight incubation by MTT assay; assay type: functional
PANC-1 [9] = assay: Induction of cell death in human PANC-1 cells assessed as […] cleavage at 20 uM after 6 hrs under 900 nm light irradiation by two-photon based Western blotting analysis; assay type: functional
[10] = Dark toxicity against human HepG2 cells assessed as reduction in cell viability after 3 hrs by MTT assay; assay type: cell-based
A549 = assay: Phototoxicity against human A549 cells assessed as reduction in cell viability after 3 hrs followed by compound washout and 415 nm light irradiation measured after overnight incubation by MTT assay; assay type: functional
[11] = Dark toxicity against human A549 cells assessed as reduction in cell viability after 3 hrs by MTT assay; assay type: cell-based
PANC-1 [12] = assay: Induction of ROS production in human PANC-1 cells at 20 uM preincubated for 3 hrs followed by compound washout and 900 nm light irradiation by DCFH-DA staining based two-photon fluorescence microscopy analysis; assay type: functional, cell-based
PANC-1 [13] = assay: Induction of cell morphological changes in human PANC-1 cells at 20 uM preincubated for 2 hrs followed by compound washout and 900 nm light irradiation measured after 1 hr post irradiation by two-photon based bright field imaging analysis; assay type: functional
PANC-1 [14] = assay: Induction of ROS production in human PANC-1 cells at 20 uM incubated for 3 hrs under 415 nm light irradiation by DCFH-DA staining based fluorescence microscopic analysis; assay type: functional, cell-based
[15] = Drug uptake in human PANC-1 cells at 0.5 to 20 uM after 3 hrs under 900 nm light irradiation by two-photon based fluorescence imaging assay; assay type: ADME, cell-based; details: panc-1, 3 h, dose 0.5-20 µM
PANC-1 [16] = assay: Induction of apoptosis in human PANC-1 cells at 20 uM preincubated for 3 hrs followed by compound washout and 415 nm light irradiation for 10 mins and measured after 4 to 24 hrs post irradiation by Annexin V-FITC staining based assay; assay type: functional, cell-based
PANC-1 [17] = assay: Induction of cell death in human PANC-1 cells assessed as reduction in cell viability preincubated for 3 hrs followed by compound washout and immediate 900 nm light irradiation and measured 1 hr post light irradiation by two-photon based MTT assay; assay type: functional
PANC-1 [18] = assay: Antitumor activity against human PANC-1 tumor spheroids at 20 uM preincubated for 3 hrs followed by compound washout and 900 nm light irradiation by two-photon baseReadyProbes blue/green imaging analysis; assay type: functional, cell-based
PANC-1 [19] = assay: Induction of apoptosis in human PANC-1 cells assessed as necrosis at 20 uM preincubated for 3 hrs followed by compound washout and 415 nm light irradiation for 10 mins and measured after 24 hrs post irradiation by Hoeschst-33342/PI staining based assay; assay type: functional, cell-based
PANC-1 [20] = assay: Phototoxicity against human PANC-1 cells assessed as reduction in cell viability after 3 hrs followed by compound washout and 415 nm light irradiation measured after overnight incubation by MTT assay; assay type: functional
[21] = Induction of singlet oxygen production assessed as singlet oxygen quantum yield at 20 uM upon 415 nm light irradiation by ABDA assay; assay type: functional
PANC-1 [22] = assay: Induction of cell death in human PANC-1 cells assessed as reduction in cell viability preincubated for 2 hrs followed by compound washout and immediate 900 nm light irradiation and measured 1 hr post light irradiation by two-photon based ReadyProbes blue/green imaging analysis; assay type: functional
HepG2 = assay: Phototoxicity against human HepG2 cells assessed as reduction in cell viability after 3 hrs followed by compound washout and 415 nm light irradiation measured after overnight incubation by MTT assay; assay type: functional; details: HepG2, light or radiation study
PANC-1 [23] = assay: Induction of apoptosis in human PANC-1 cells assessed as shrinkage of cells at 20 uM preincubated for 3 hrs followed by compound washout and 415 nm light irradiation for 10 mins and measured after 24 hrs post irradiation by Hoeschst-33342/PI staining based assay; assay type: functional, cell-based
[24] = Induction of ROS production in DBPS at pH 7.4 assessed as DCF production at 20 uM upon 415 nm light irradiation by fluorescence spectra analysis; assay type: functional
[25] = PANC-1, light or radiation study

With `O=C(Nc1ccc2c3c(cccc13)C(=O)C=C2)c1ccccc1` the CC50 at 3 h [1] was > 32000 nM, the Activity (PANC-1 [2]) was “Active” and the Activity (PANC-1 [3]) was “Active”. For the same molecule, the Activity (PANC-1 [4]) was “Active”, the Activity (MCF7 [5]) was “Active” and the Activity (PANC-1 [6]) was “Active”. The CC50 at 3 h [7] was > 32000 nM, the Activity (MCF7 [8]; DDE = dose-dependent effect) was “Dde” and the CC50 (MCF7 [8]; MCF7, light or radiation study) was 1600 nM. For the same molecule, the Activity (PANC-1 [9]) was “Active”, the CC50 at 3 h [10] was > 32000 nM and the CC50 (A549; A549, light or radiation study) was 4400 nM. For the same molecule, the Activity (A549; DDE = dose-dependent effect) was “Dde”, the CC50 at 3 h [11] was > 32000 nM and the Activity (PANC-1 [12]) was “Active”. For the same molecule, the Activity (PANC-1 [13]) was “Active”, the Activity (PANC-1 [14]) was “Active” and the Drug uptake [15] was “Active”. For the same molecule, the Activity (PANC-1 [16]) was “Active”, the Activity (PANC-1 [17]; DDE = dose-dependent effect) was “Dde” and the CC50 (PANC-1 [17]; [25]) was 647 nM. The Activity (PANC-1 [18]) was “Active”, the Activity (PANC-1 [19]) was “Active” and the Activity (PANC-1 [20]; DDE = dose-dependent effect) was “Dde”. For the same molecule, the CC50 (PANC-1 [20]; [25]) was 1400 nM, the Activity [21] was 0.18 and the Activity (PANC-1 [22]; DDE = dose-dependent effect) was “Dde”. For the same molecule, the CC50 (PANC-1 [22]; [25]) was 647 nM, the CC50 (HepG2) was > 32000 nM and the Activity (PANC-1 [23]) was “Active”. For the same molecule, the Activity [24] was “Active”.
